Data set [1] is described as follows: CaCo-2 permeability (bi-directional). To be noted: human. As for the experimental part: Caco-2 cells obtained from the ATCC were used between passage numbers 40—60. Cells were seeded onto Millipore Multiscreen Transwell plates at 1 × 10^5 cells/cm^2. The cells were cultured in DMEM and media was changed every two or three days. On day 20, the permeability study was performed. […] Cells were then incubated with HBSS at the desired pH in both apical and basolateral compartments for 40 min to stabilize physiological parameters.
The fluorescent integrity marker lucifer yellow was also included in the dosing solution. Analytical standards were prepared from test compound DMSO dilutions and transferred to buffer, maintaining a 1% v/v DMSO concentration.
For assessment of A-B permeability, HBSS was removed from the apical compartment and replaced with test compound dosing solution. The apical compartment insert was then placed into a companion plate containing fresh buffer (containing 1% v/v DMSO). For assessment of B-A permeability, HBSS was removed from the companion plate and replaced with test compound dosing solution. Fresh buffer (containing 1% v/v DMSO) was added to the apical compartment insert, which was then placed into the companion plate.
Compound permeability was assessed in duplicate. Compounds of known permeability characteristics were run as controls on each assay plate.
Test and control compounds were quantified by LC–MS/MS cassette analysis using a 7-point calibration with appropriate dilution of the samples. The starting concentration (C0) was determined from the dosing solution and the experimental recovery calculated from C0 and both apical and basolateral compartment concentrations. The integrity of the monolayer throughout the experiment was checked by monitoring lucifer yellow permeation using fluorimetric analysis.
The permeability coefficient (Papp) for each compound was calculated from the following equation: Papp=dQ/dtC0×A where dQ/dt was the rate of permeation of the drug across the cells, C0 was the donor compartment concentration at time zero and A was the area of the cell monolayer. C0 was obtained from analysis of the dosing solution.
Efflux ratio (ER) was calculated from mean A-B and B-A data. This was derived from: ER=Papp(B-A)Papp(A-B)
Background: Caco-2 cells form a polarised layer with tight junctions and transporters.

Data set [2] deals with HepG2 human hepatocellular carcinoma cells. Kind of data set: Cell viability (cytotoxicity, MTT) using HepG2. To be noted: for MTT (AC50) Conc at which 50% of maximum efficacy is reached / MTT (MEC) Minimum effective concentration: 72 h, summary sheet. It counts as cell-based. As for the experimental part:
HepG2 human hepatocellular carcinoma cells were plated on 96-well tissue culture polystyrene plates for 24 h prior to dosing of the cells. The shortlisted hits were diluted in DMSO and serial dilutions are made 1% DMSO in growth media. Compounds at 8 concentrations in triplicate was then incubated for 72 h. Appropriate blanks and controls were run alongside the assay. One h prior to the end of the incubation period, the cells were loaded with MTT [yellow; 3-(4,5-dimethyl-2-thiazolyl)-2,5-diphenyl-2H-tetrazolium bromide], the plates were dried and re-solubilized using DMSO. The plates were then scanned at 570 nm using a plate reader.
The minimum effective concentration was determined from the lowest concentration whose mean value exceeds the significance level, provided either a clear dose–response relationship was observed, or at least two consecutive concentration points were above the significance level.

Data set [3] is described as follows: Microsomal metabolic stability. Type of data set: in vitro ADME. To be noted: human, pooled liver microsomes; for half-life at 1 µM: pH 7.4, liver microsomes; for microsomal CLint at 1 µM: pH 7.4, read-out: Metabolic stability - Intrinsic clearance (CI). As for the experimental part:
Pooled liver microsomes were purchased from Xenotech (H0500) and were stored according to manufacturer’s instructions prior to use. […] A minus co-factor control incubation was included for each compound tested where 0.1 M phosphate buffer pH 7.4 was added instead of NADPH. Two control compounds were included with each species. All incubations were performed singularly for each shortlisted hit. Each compound was incubated for 0, 5, 15, 30 and 45 min. The minus co-factor was incubated for 45 min only. The reactions were stopped by transferring incubate into acetonitrile at the appropriate time points in a 1:3 ratio. The termination plates were centrifuged at 3000 rpm for 20 min at 4 °C to precipitate the protein. Following protein precipitation, the supernatant were combined in cassette of up to 4 compounds, internal standard for MS analysis was added and samples were analyzed using LC–MS/MS. From a plot of In peak area ratio (compound peak area/internal standard peak area) against time, the gradient of the lines were determined. Subsequently, half-life and intrinsic clearance were calculated using the following equations. Eliminationrateconstant(k)=(-gradient)Half-life(t1/2)(min)=0.693/kIntrinsicclearance(CLint)(μl/min/mgprotein)=Vx0.693/t1/2 where V = Incubation volume (µl) / Microsomal protein (mg)
For orientation: Liver microsomes are a subcellular fraction often used to study metabolism.

Data set [4] can be described thus: Semi-thermodynamic solubility. Type of data set: physicochemical. Particulars: for solubility / solubility thermodynamic: PBS, aqueous buffer, thermodynamic from solid; for solubility: Room Temp, Overnight, LC-MSMS; for solubility thermodynamic: overnight; for solubility thermodynamic / Solubility (class in words): summary sheet. The protocol:
In vitro ADME-T assays were performed by Cyprotex (Cyprotex Discovery, Cheshire, UK). […] The solution was agitated at ambient temperature overnight. The solutions were then centrifuged for 30 min at 3000 rpm at RT. The supernatant was removed and centrifuged for a further 30 min under the same conditions. An aliquot of the resulting supernatant was diluted in 50% methanol in water (containing an internal standard for MS analysis) prior to analysis by LC–MS/MS. […] These stocks were diluted in 50% methanol in water (containing an internal standard for MS analysis) prior to analysis by LC–MS/MS. The solubility of the shortlisted hits was calculated from a linear or quadratic fit of the standard curve.

The test system of the next data set is DAOY cells. Kind of data set: Spheroid invasion assay (SIA), bFGF-induced collagen I invasion. It counts as cell-based, human. Particulars: for functional activity in SIA (result in words): DAOY, bFGF-induced, 1, 5 and 10 µM; for EC50: DAOY cells, n = 3 technical replicas, read-out: EC50 for the inhibition of bFGF-induced collagen I invasion. The gist of the method: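 Spheroids formed over 24–72 h were embedded in collagen I (final 1.75 mg/ml) and stimulated with bFGF (100 ng/ml unless stated), HGF 30 ng/ml or EGF 20 ng/ml with compound in DMSO. Invasion distance was quantified 24–48 h after embedding.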

[5] abbreviates: Caco-2, Mean Papp A-B, Caco-2, summary sheet.
The mark [6] stands for this setting: Caco-2, Mean Papp B-A, Caco-2, summary sheet.
Where [7] appears, read: Caco-2, pH 7.4, Mean % Recovery A2B, HBSS/HBSS, pH 7.4/7.4.
Setting [8] is: Caco-2, pH 7.4, Mean % Recovery B2A, HBSS/HBSS, pH 7.4/7.4.
The mark [9] stands for this setting: Caco-2, pH 7.4, Mean Papp A2B, HBSS/HBSS, pH 7.4/7.4.
The mark [10] stands for this setting: Caco-2, pH 7.4, Mean Papp B2A, HBSS/HBSS, pH 7.4/7.4.
Setting [11] is: Caco-2, pH 7.4, Papp A2B Replicate 1, HBSS/HBSS, pH 7.4/7.4.
[12] abbreviates: Caco-2, pH 7.4, Papp A2B Replicate 2, HBSS/HBSS, pH 7.4/7.4.
The mark [13] stands for this setting: Caco-2, pH 7.4, Papp B2A Replicate 1, HBSS/HBSS, pH 7.4/7.4.
The mark [14] stands for this setting: Caco-2, pH 7.4, Papp B2A Replicate 2, HBSS/HBSS, pH 7.4/7.4.
The mark [15] stands for this setting: read-out: Solubility Replicate 1.
[16] abbreviates: read-out: Solubility Replicate 2.
Where [17] appears, read: read-out: Solubility Replicate 3.
The mark [18] stands for this setting: read-out: Solubility Replicate 4.

Where two headings read alike, the source gives them in different places. A value given as a limit tells only on which side of the number the result lay.

As usually defined, the efflux ratio is the permeability from basolateral to apical divided by that in the opposite direction, in the common usage. The term Papp A→B denotes how fast a substance crosses the layer from the apical side. Low values mean slow passage, high ones fast passage. What is called Papp B→A is how fast a substance crosses the layer from the basolateral side. The term solubility denotes the dissolved amount per volume that the medium holds. Broadly, the solubility (thermodynamic) is solubility found after equilibrating the solid with the medium. `O=C(O)c1c(Cl)cc(O)c2c1C1C=CCC1C(c1ccc(Cl)cc1)N2` (stereo not drawn) [Compound 13]: the efflux ratio at 120 min, 10 μM in data set [1] (Caco-2) amounted to 1.5; in data set [1] (Caco-2, pH 7.4), 1.5. Also, the Papp A→B at 120 min, 10 μM is 1.94 ×10⁻⁶ cm/s in data set [1] (setting [5]), 1.94 ×10⁻⁶ cm/s in data set [1] (setting [9]), 1.02 ×10⁻⁶ cm/s in data set [1] (setting [11]) and 2.86 ×10⁻⁶ cm/s in data set [1] (setting [12]). Also, the Papp B→A at 120 min, 10 μM in data set [1] (setting [6]) was found to be 2.91 ×10⁻⁶ cm/s; in data set [1] (setting [10]) it was 2.91 ×10⁻⁶ cm/s; in data set [1] (setting [13]), 2.62 ×10⁻⁶ cm/s; in data set [1] (setting [14]) it was 3.2 ×10⁻⁶ cm/s. Further, the figures for the recovery at 120 min, 10 µM in data set [1] (setting [7]) and in data set [1] (setting [8]) were 86.6% and 85%, respectively. Moreover, the “MTT (AC50) Conc at which 50% of maximum efficacy is reached” value in data set [2] was “No response”. Moreover, the “MTT (MEC) Minimum effective concentration” value in data set [2] is reported as “No response”. Moreover, in data set [3] (read-out: t1/2), the half-life at 1 µM came to 83 min. For the same compound, in data set [3], the microsomal CLint at 1 µM turned out to be 16.7 µL/min/mg. Moreover, the solubility in data set [4] (read-out: Mean Solubility), in data set [4] (setting [15]), in data set [4] (setting [16]), in data set [4] (setting [17]) and in data set [4] (setting [18]) was above 100 µM throughout. In data set [4], this compound showed a thermodynamic solubility above 100 µM. Also, the “Solubility (class in words)” value in data set [4] is “Freely”. In addition, the “functional activity in SIA (result in words)” value with DAOY cells is given as “mild but dose-depended reduction”.
As to `O=[N+]([O-])c1c(Cl)cc(O)c2c1C1C=CCC1C(c1ccc(Cl)cc1Cl)N2` (stereo not drawn) [Compound 8], the Papp B→A at 120 min, 10 μM in data set [1] (setting [6]) was determined as 7.05 ×10⁻⁶ cm/s; in data set [1] (setting [10]) it was 7.05 ×10⁻⁶ cm/s; in data set [1] (setting [13]), 7.14 ×10⁻⁶ cm/s; in data set [1] (setting [14]), 6.96 ×10⁻⁶ cm/s. Besides, the recovery at 120 min, 10 µM in data set [1] (setting [7]) was 32.1%; in data set [1] (setting [8]), 33.3%. The MEC in data set [2] (72h, 3 replicas, NR = No response (Summary sheet)) amounted to 6.79 µM. The “MTT (MEC) Minimum effective concentration” value in data set [2] was found to be 6.79 µM. Moreover, the half-life at 1 µM in data set [3] (read-out: t1/2) was found to be 3.35 min. The microsomal CLint at 1 µM in data set [3] amounted to 414 µL/min/mg. Moreover, the solubility in data set [4] (read-out: Mean Solubility), in data set [4] (setting [15]), in data set [4] (setting [17]) and in data set [4] (setting [18]) was above 100 µM in each case. Besides, the solubility (thermodynamic) in data set [4] is above 100 µM. In addition, the “Solubility (class in words)” value in data set [4] was “Freely”. Also, the “functional activity in SIA (result in words)” value in the data set with DAOY cells is given as “invasion inhibition only at the highest concentration”.
A word on the EC50: it is the concentration needed to bring the measured effect to its halfway point. `CC(C)C[C@@H](CO)NCc1cc(O)c2cc(F)ccc2n1` [Compound 3.14]: the efflux ratio at 120 min, 10 μM was determined as 8.64 in data set [1] (Caco-2) and 8.64 in data set [1] (Caco-2, pH 7.4). Besides, the apparent permeability from apical to basolateral (Papp A→B) at 120 min, 10 μM in data set [1] (setting [5]) was 4.7 ×10⁻⁶ cm/s; in data set [1] (setting [9]) it was 4.7 ×10⁻⁶ cm/s; in data set [1] (setting [11]), 4.69 ×10⁻⁶ cm/s; in data set [1] (setting [12]), 4.71 ×10⁻⁶ cm/s. Further, the Papp B→A at 120 min, 10 μM in data set [1] (setting [6]) came out at 40.6 ×10⁻⁶ cm/s; in data set [1] (setting [10]) it was 40.6 ×10⁻⁶ cm/s; in data set [1] (setting [13]), 40 ×10⁻⁶ cm/s; in data set [1] (setting [14]), 41.2 ×10⁻⁶ cm/s. In addition, the values for the recovery at 120 min, 10 µM in data set [1] (setting [7]) and in data set [1] (setting [8]) were 70.2% and 73.4%, respectively. Moreover, the “toxicity in the MTT assay (result in words)” value in data set [2] was “no toxicity”. Moreover, the “MTT (AC50) Conc at which 50% of maximum efficacy is reached” value in data set [2] was “No response”. In data set [2], the “MTT (MEC) Minimum effective concentration” value is “No response”. Also, the half-life at 1 µM in data set [3] (read-out: t1/2) was 29.1 min; in data set [3] (read-out: t1/2 of clearance (CL1/2), in vitro), 29 min. Also, the microsomal CLint at 1 µM in data set [3] was 47.6 µL/min/mg. For the same compound, the solubility in data set [4] (read-out: Mean Solubility), in data set [4] (setting [15]), in data set [4] (setting [16]), in data set [4] (setting [17]) and in data set [4] (setting [18]) was above 100 µM each time. For the same compound, the “solubility (result in words)” value in data set [4] (Supplementary Table 2) was “freely soluble”. Also, the solubility (thermodynamic) in data set [4] is above 100 µM. Moreover, the “Solubility (class in words)” value in data set [4] was “Freely”. Also, the EC50 was determined as 5.92 µM in the data set with DAOY cells and 5.92 µM in the data set with DAOY cells (Homo sapiens, Daoy).
